Results taken from ChEMBL document CHEMBL3091374, “New synthetic enediynes and their conjugates may provide effective treatment for cancer” (ACS Med Chem Lett, 2013).

Key:
[1] = tested on: NCI-H226; experiment: Antiproliferative activity against human NCI-H226 cells assessed as ATP level after 72 hrs by CellTiter-Glo assay; format: functional, cell-based; details: NCI-H226, 72 h
[2] = Antiproliferative activity against human 786-O cells assessed as ATP level after 72 hrs by CellTiter-Glo assay; format: functional, cell-based; details: 786-0, 72 h

Row | SMILES | EC50 [1] | EC50 [2]
1 | C[C@@H](O)[C@@]12O[C@]13c1cc(O)c4c(c1N[C@H]2C#C/C=C\C#C[C@H]3O)C(=O)c1ccc(NCCN)cc1C4=O | 0.986 nM | 1.27 nM
2 | C[C@@H](O)[C@@]12O[C@]13c1cc(O)c4c(c1N[C@H]2C#C/C=C\C#C[C@H]3O)C(=O)c1ccc(NC(=O)c2ccc(N)cc2)cc1C4=O | 0.873 nM | 0.058 nM
